{"source": "patent US5688830A", "about": "“Treatment of neuropathic pain” (Syntex (U.S.A.) Inc., priority 1997, dated 1997)", "key": {"cold allodynia in rats": {"test_system": "cold allodynia in rats", "experiment": "Cold allodynia in vivo assay (chronic constriction injury), chronic studies", "design": "species or system rat", "settings": "for anti-allodynia after chronic dosing: subcutaneous, 5 days of twice daily dosing", "procedure": "This assay determines the effectiveness of compounds in relieving one of the symptoms of neuropathic pain produced by unilateral mononeuropathy, namely cold allodynia. Unilateral mononeuropathy was produced in rats using the Chronic Constriction Injury model performed essentially as described by Bennet and Xie, Pain, (1988) 33:87-107. Briefly, the rats were anesthetized with an intraperitoneal dose of pentobarbital sodium (65 mg/kg) with additional doses of anesthetic given as needed. The lateral aspect of each rat's hind limb was shaved and scrubbed with Novasan. Using aseptic technique, an incision was made on the lateral aspect of the hind limb at the mid-thigh level. The biceps femoris was bluntly dissected to expose the sciatic nerve. On the right hind limb of each rat, four loosely tied ligatures were made around the sciatic nerve approximately 1-2 millimeters apart. On the left side of each rat, an identical dissection was performed except that the sciatic nerve was not ligated. The muscle was closed with a continuous suture pattern, and the skin was closed with wound clips. Each rat was placed individually into a plexiglass chamber with a metal plate 6 cm from the bottom. This chamber was filled with ice water to a depth of 2.5 cm above the metal plate, with the temperature of the bath maintained at 0° C. throughout the experiment. A timer was started, and the rat's response latency was measured to the nearest tenth of a second. A \"response\" was defined as a rapid withdrawal of the right ligated hindpaw completely out of the water while the animal was stationary and not pivoting. An exaggerated limp while the animal was walking was not scored as a response. Maximum immersion time was 20 seconds with a 20 minute interval between trials. The screening criteria were 1) the average of two trials was less than or equal to 13 seconds, and 2) there was consistency across the two trial scores. Animals were screened for hypersensitivity to cold on post-surgery days 4 through 10, and selected for inclusion in dose-response studies based on the criteria described above. The pre-dose screening values were used as the animal's baseline cold allodynia scores. For chronic studies, the animals received subcutaneous or oral injections twice daily for 4 days and once on day 5. The animals were tested for allodynia on day 1 at 1, 3 and 5 hours following the 8 am dose, and at 5 hours following the 8 am dose on days 3 and 5. Two days later, the animals were tested for cold allodynia to assess whether there was a wash-out of the drug being tested. Following this screening for cold allodynia, the animals in two of the three chronic studies received either subcutaneous or oral injections of the drug at a dose previously shown to produce significant anti-allodynic effects acutely. […]"}, "[1]": {"experiment": "Adverse effects / gross behavior on dosing", "type": "in vivo, rat", "procedure": "The doses for the acute and chronic studies were selected on the basis of prior assessment of the acute effects on the test compounds on the gross behavior in normal rats. Briefly, the rats were weighed and grouped into cages, dosed with the test compound, and observed continuously for changes in behavior. […] Pinna and corneal reflexes were tested by using a piece of natural hair from a brush that is attached to a glass rod. The righting reflexes were tested by placing the rat flat on its back, and recording the time it takes for the animal to right itself onto all four legs. The posture and gait were assessed by placing the rat on the floor.\nThe selection of doses was similar to that of Example 12C."}, "[2]": {"test_system": "mechanical allodynia in rats", "experiment": "Mechanical allodynia in vivo assay (spinal nerve ligation)", "design": "species or system rat", "procedure": "This assay determines the effectiveness of compounds in relieving one of the symptoms of neuropathic pain produced by spinal nerve ligation, namely mechanical allodynia. The surgical procedure was performed essentially as described by Kim and Chung, Pain, (1992) 50:355-363. Briefly, the rats were anesthetized with an intraperitoneal dose of pentobarbital sodium (65 mg/kg) with additional doses of anesthetic given as needed. Each animal was then placed in a prone position, a 3 cm lateral incision was made, and the left paraspinal muscles separated from the spinous process at the L4 -S2 level. The L6 transverse process was then removed in order to visually identify the L4 -L6 spinal nerves. The L5 and L6 spinal nerves were then individually isolated and tightly ligated with silk thread. The wound was then closed in layers by silk sutures. Seven to 28 days post-surgery, a calibrated series of eight von Frey filaments were used to assess mechanical allodynia. Animals were housed individually in plexiglass cages with a wire mesh floor. Filaments of increasing stiffness were applied perpendicular to the midplantar surface in the sciatic nerve distribution areas of the left hindpaw and were slowly depressed (4-6 seconds) until bending occurred. The filament application order and number of trials were determined by the up-down method of Dixon (Chaplan, et al., J. Neurosci. Methods, (1994) 53:55-63). Flinching and licking of the paw and paw withdrawal on the ligated side were all considered positive responses. The 50% paw withdrawal threshold (g) was then calculated and compared to control. The doses for the acute and chronic studies were selected on the basis of prior assessment of the acute effects on the test compounds on the gross behavior in normal rats. Briefly, the rats were weighed and grouped into cages, dosed with the test compound, and observed continuously for changes in behavior. […] Pinna and corneal reflexes were tested by using a piece of natural hair from a brush that is attached to a glass rod. The righting reflexes were tested by placing the rat flat on its back, and recording the time it takes for the animal to right itself onto all four legs. The posture and gait were assessed by placing the rat on the floor."}, "[3]": {"experiment": "Metabolism to Formula II / plasma levels of Formula II after oral administration", "type": "in vivo"}, "[4]": {"test_system": "voltage-gated sodium channels ([3H]BTX binding, rat cortex)", "experiment": "[3H]BTX binding assay, rat cortex membranes", "procedure": "The following assays characterize the interaction of the compounds of Formula I with ligand binding sites on voltage-gated sodium channels.\nFrozen tissues were obtained from Pel-Freez Biologicals (Rogers, AR). Tissues were homogenized in 10 volumes of a Tris-sucrose buffer (10 mM Tris-HCl, 250 mM sucrose, pH 7.4 at 4° C.) using 10 strokes with a glass-glass, hand-held homogenizer. The homogenates were filtered through nylon mesh and then centrifuged at 1,000×g for 15 minutes. The pellets were resuspended in a Hepes buffer (50 mM Hepes, 130 mM choline chloride, 5 mM glucose, 5.4 mM KCl, pH 7.4 at 4° C.). The resuspended pellets were centrifuged at 1,000×g for 15 minutes, resuspended in a Hepes buffer (50 mM Hepes, 130 mM choline chloride, 5 mM glucose, 5.4 mM KCl, pH 7.4 at 25° C.) and, frozen at -70° C. until used in binding assays.\nNonspecific binding was defined in the presence of 1 mM veratridine. Unless otherwise specified, PbTx (0.1 μM) and LqTx (50 μg/ml) were included in the assays. Membranes were incubated for 60 minutes at 25° C. and then filtered using GF/B glass fiber filters that had been pretreated with 0.3% PEI. Filters were rinsed with 3×1 ml of ice cold 50 mM Tris-HCl (pH 7.4 at 4° C.) and the bound radioactivity was determined by scintillation counting (Packard Top-count)."}, "[5]": {"settings": "subcutaneous, cold allodynia acute study"}, "[6]": {"settings": "mechanical allodynia, subcutaneous"}}}
{"smiles": "CCNC(C)COc1c(C)cccc1C", "note": "(racemic) [Formula I racemate, [2-(2,6-dimethylphenoxy)-1-methylethyl]-ethylamine]", "values": [{"measurement": "anti-allodynia after chronic dosing", "setting": "cold allodynia in rats", "result": "significant levels of anti-allodynia"}, {"measurement": "doses with adverse side effects / behavioral problems", "setting": "[1]; [5]", "result": "higher than 60 mg/kg"}, {"measurement": "adverse side effects observed", "setting": "[1]; subcutaneous, cold allodynia acute study, doses higher than 60 mg/kg", "result": "convulsions and immobility"}, {"measurement": "ED50", "setting": "[2]; Rattus norvegicus, sc, mechanical allodynia, subcutaneous", "result": 12.6, "unit": "mg/kg"}, {"measurement": "EDmax", "setting": "[2]; [6]", "result": 66, "unit": "%"}, {"measurement": "maximal analgesic activity (Emax)", "setting": "[2]; [6]", "result": 66, "unit": "%"}, {"measurement": "potency (ED50) comparison", "setting": "[2]; mechanical allodynia, subcutaneous, in words", "result": "considerably more potent (ED50) than II or III"}, {"measurement": "metabolism to the compound of Formula II", "setting": "[3]; oral, mammal", "result": "metabolized to some extent to the compound of Formula II"}, {"measurement": "potency in rat cortex greater than in rat heart or rat dorsal root ganglion", "setting": "[4]; [3H]BTX binding, rat cortex vs rat heart or dorsal root ganglion", "result": "approximately 10 fold"}, {"measurement": "inhibition of [3H]BTX binding", "setting": "[4]; rat cortex membranes", "result": "inhibited"}]}
{"smiles": "CCN[C@H](C)COc1c(C)cccc1C", "note": "[Formula I (R)-, (R)-[2-(2,6-dimethylphenoxy)-1-methylethyl]-ethylamine]", "values": [{"measurement": "anti-allodynic effect after chronic oral dosing", "setting": "cold allodynia in rats; oral, chronic, (R)-enantiomer 10 and 20 mg/kg, sub-threshold", "result": "as robust an anti-allodynic effect as an acute dose of compound I that is 10 fold higher"}, {"measurement": "anti-allodynia after chronic dosing", "setting": "cold allodynia in rats", "result": "significant levels of anti-allodynia"}, {"measurement": "doses with adverse side effects", "setting": "[1]; oral administration, mechanical allodynia study", "result": "≥ 300", "unit": "mg/kg"}, {"measurement": "safety profile", "setting": "[1]; oral administration, vs (S)-enantiomer", "result": "cleaner safety profile"}, {"measurement": "doses with adverse side effects / behavioral problems", "setting": "[1]; [5]", "result": "≥ 300", "unit": "mg/kg"}, {"measurement": "safety profile", "setting": "[1]; subcutaneous, cold allodynia acute study, vs racemate, (S)-enantiomer, or II", "result": "cleaner safety profile"}, {"measurement": "maximal analgesic activity (Emax)", "setting": "[2]; [6]", "result": 98, "unit": "%"}, {"measurement": "maximal analgesic activity, comparison", "setting": "[2]; mechanical allodynia, subcutaneous, vs racemates of I, II and III", "result": "significantly greater maximal analgesic activity"}, {"measurement": "analgesia against mechanical allodynia", "setting": "[2]; oral administration", "result": "did not produce analgesia"}, {"measurement": "plasma level of Formula II after oral (R)-enantiomer of Formula I, less than after acute administration of Formula II itself", "setting": "[3]; oral administration, plasma", "result": "5-10 fold less"}, {"measurement": "potency of (R)- versus (S)-enantiomer in inhibiting [3H]BTX binding", "setting": "[4]; rat brain cortex membranes", "result": "no difference in the potencies"}]}
